The values below come from ChEMBL document CHEMBL1127817, “Antitumor agents. 150. 2',3',4',5',5,6,7-substituted 2-phenyl-4-quinolones and related compounds: their synthesis, cytotoxicity, and inhibition of tubulin polymerization” (J Med Chem, 1994).

One may read the GI50 as the concentration giving 50% growth inhibition. Low readings indicate more potent growth inhibition, high ones less potent growth inhibition. For orientation: IC50 means the concentration that gives 50% inhibition.

The subject of assay [1] is RXF 393. Put plainly: In vitro inhibition of tumor cell growth of RXF-393, renal cancer cell line. In kind it is functional. Particulars: Homo sapiens.
Assay [2] relates to SF-268. Put plainly: In vitro inhibition of tumor cell growth of SF-268, CNS tumor cell line. It is filed as functional. Particulars: Homo sapiens.
In assay [3] the test system is NCI-H226. Put plainly: In vitro inhibition of tumor cell growth of NCI-H226, a non small-cell lung cancer cell line. It is filed as functional. Conditions: Homo sapiens.
Assay [4] has as its target Tubulin beta chain (Bos taurus, UniProt Q6B856). Put plainly: Inhibition of tubulin polymerization. In kind it is functional.
Assay [5] has as its system DMS-114. Put plainly: In vitro inhibition of tumor cell growth of DMS114, a small-cell lung cancer cell line. Conditions: Homo sapiens.
Assay [6] has as its system HCT-116. Description: In vitro inhibition of tumor cell growth of HCT116, colon cancer cell line. In kind it is functional. Particulars: Homo sapiens.
Assay [7] relates to SF-295. Put plainly: In vitro inhibition of tumor cell growth of SF-295, CNS tumor cell line. It is filed as functional. Conditions: Homo sapiens.
In assay [8] the test system is KM-20L2. Description: In vitro inhibition of tumor cell growth of KM20L2, colon cancer cell line. It is filed as functional. Conditions: Homo sapiens.
Assay [9] relates to SK-MEL-5. Description: In vitro inhibition of tumor cell growth of SK-Mel-5, melanoma cell line. In kind it is functional. Conditions: Homo sapiens.
The subject of assay [10] is OVCAR-3. Description: In vitro inhibition of tumor cell growth of OVCAR-3, ovarian cancer cell line. It is filed as functional. Particulars: Homo sapiens.

Chain of Tubulin beta chain (Q6B856 whole entry): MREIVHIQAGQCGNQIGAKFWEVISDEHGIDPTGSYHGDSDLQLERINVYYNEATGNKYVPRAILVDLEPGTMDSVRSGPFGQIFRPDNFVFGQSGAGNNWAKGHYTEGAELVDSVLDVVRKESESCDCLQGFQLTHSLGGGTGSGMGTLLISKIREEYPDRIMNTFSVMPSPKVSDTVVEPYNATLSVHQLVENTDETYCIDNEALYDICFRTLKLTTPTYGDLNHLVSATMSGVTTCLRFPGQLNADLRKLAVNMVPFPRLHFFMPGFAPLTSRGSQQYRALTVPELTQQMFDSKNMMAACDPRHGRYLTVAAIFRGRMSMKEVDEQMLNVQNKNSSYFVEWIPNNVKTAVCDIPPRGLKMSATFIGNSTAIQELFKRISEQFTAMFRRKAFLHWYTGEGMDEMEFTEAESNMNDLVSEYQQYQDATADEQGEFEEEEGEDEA

For `Oc1cc(-c2ccccn2)nc2ccc(Cl)cc12`, the GI50 was 33.9 µM in assay [1]; 23.4 µM in [2]; 46.8 µM in [3]; 13.8 µM in assay [5]; 26.3 µM in [6]; 51.3 µM in assay [7]. The results for the concentration for 50% growth inhibition (GI50) in assay [8], in assay [9] and in assay [10] were 39.8 µM, 26.3 µM and 63.1 µM, respectively. Further, the half-maximal inhibitory concentration (IC50) in assay [4] was greater than 40 µM.
Turning to `Oc1cc(-c2ccc(Oc3ccccc3)cc2)nc2cc3c(cc12)OCO3`, the GI50 in [1], in assay [2], in assay [5], in [6], in [7] and in assay [8] was greater than 100 µM in each case. Besides, the GI50 in [9] and in assay [10] was greater than 100 µM in each case. For the same molecule, in [4], the IC50 was greater than 40 µM.
Turning to `COc1ccc(CCc2cc(OC)c(OC)c(OC)c2)cc1O`, in assay [4], 0.63 µM corresponded to half-maximal inhibition (IC50).
`COc1ccc(-c2cc(O)c3cc4c(cc3n2)OCO4)c(OC)c1OC`: the 50% growth inhibitory concentration (GI50) in assay [1] is greater than 100 µM; in [2], greater than 100 µM; in [3] it was greater than 100 µM; in [5], 29.5 µM; in [6], greater than 100 µM; in [7], 75.9 µM. The GI50 in [8], in assay [9] and in assay [10] was greater than 100 µM in each case. For the same molecule, the half-inhibitory concentration (IC50) in [4] was greater than 40 µM.
As for `COc1ccc(-c2cc(O)c3cc(OC)c(OC)cc3n2)cc1OC`, the 50% growth inhibitory concentration (GI50) in [1] is 67.6 µM; in assay [2], greater than 100 µM; in assay [3] it was greater than 100 µM; in assay [6], greater than 100 µM; in [7] it was greater than 100 µM; in assay [9] it was greater than 100 µM. The concentration for 50% growth inhibition (GI50) in assay [10] was greater than 100 µM. For the same molecule, the IC50 in [4] was greater than 40 µM.
As to `Oc1cc(-c2ccc3c(c2)OCO3)nc2cc3c(cc12)OCO3`, the concentration for 50% growth inhibition (GI50) in [1] is 20.9 µM; in [2], 46.8 µM; in assay [3] it was 39.8 µM; in assay [5] it was 24 µM; in assay [6] it was 38 µM; in assay [7], 29.5 µM. Also, the GI50 in [8] is 26.3 µM; in assay [9] it was 25.1 µM; in assay [10], 19.5 µM. This molecule also yielded an IC50 in assay [4] of 1.1 µM.
In the case of `COc1ccc2nc(-c3ccccn3)cc(O)c2c1`, the concentration for 50% growth inhibition (GI50) in assay [1] was 2.51 µM; in assay [2], 24 µM; in assay [3] it was 36.3 µM; in [5] it was 22.4 µM; in assay [6], 33.9 µM; in assay [7] it was 51.3 µM. Moreover, the GI50 in [8] was 35.5 µM; in assay [9], 28.2 µM; in assay [10], greater than 100 µM. For the same molecule, the IC50 in [4] was greater than 40 µM.
For the molecule `COc1cccc(-c2cc(O)c3ccccc3n2)c1`, the GI50 in assay [1] was 6.61 µM; in assay [2], 6.76 µM; in assay [3], 2.82 µM; in assay [5], 5.62 µM; in assay [6], 5.75 µM; in assay [7] it was 2.29 µM. Further, the GI50 in [8] was 8.51 µM; in assay [10] it was 5.5 µM. In assay [4], this molecule yielded an IC50 of 1.4 µM.
As to `CN(C)c1ccc(-c2cc(O)c3cc4c(cc3n2)OCO4)cc1`, the GI50 in [1], in [2], in assay [3], in assay [5], in assay [6] and in assay [7] was greater than 100 µM in each case. The GI50 in assay [8], in assay [9] and in assay [10] was greater than 100 µM throughout. This molecule had a 50% inhibitory concentration (IC50) in assay [4] greater than 40 µM.
For `Oc1cc(-c2ccccn2)nc2cccc(F)c12`, the 50% growth inhibitory concentration (GI50) in assay [1] was greater than 100 µM; in assay [3], greater than 100 µM; in assay [5], greater than 100 µM; in assay [7], greater than 100 µM; in assay [8], greater than 100 µM; in assay [9] it was 61.7 µM. Further, in assay [10], the 50% growth inhibitory concentration (GI50) was greater than 100 µM. Also, in assay [4], the 50% inhibitory concentration (IC50) is greater than 40 µM.
Turning to `COc1ccc(-c2cc(O)c3cc4c(cc3n2)OCO4)c(OC)c1`, the 50% growth inhibitory concentration (GI50) in assay [1] is 45.7 µM; in [2], 63.1 µM; in assay [3], 93.3 µM; in [5] it was 26.3 µM; in assay [6], 40.7 µM; in assay [7], 45.7 µM. Besides, the GI50 was 42.7 µM in assay [8], 42.7 µM in [9] and greater than 100 µM in assay [10]. The same molecule came in with a concentration for half-maximal inhibition (IC50) in assay [4] greater than 40 µM.
Regarding `COc1cc2nc(-c3cccc(N(C)C)c3)cc(O)c2cc1OC`, the GI50 was 2.24 µM in assay [1]; 5.25 µM in [2]; 1.86 µM in [3]; 4.79 µM in [5]; 5.01 µM in assay [6]; 1.95 µM in assay [7]. Further, the GI50 in [8] is 2 µM; in assay [10], less than 1 µM. The molecule also registered a 50% inhibitory concentration (IC50) in assay [4] of 15 µM.
`Oc1cc(-c2c[nH]c3ccccc23)nc2cc3c(cc12)OCO3`: the GI50 was greater than 100 µM in [1]; greater than 100 µM in assay [2]; greater than 100 µM in [3]; greater than 100 µM in assay [5]; greater than 100 µM in assay [6]; 91.2 µM in assay [7]. Moreover, the GI50 in [8], in assay [9] and in [10] was greater than 100 µM each time. Also, the IC50 in assay [4] stood at 1.3 µM.
Consider `CN(C)c1cccc(-c2cc(O)c3ccccc3n2)c1`, for which the GI50 in [1] was 35.5 µM; in assay [2], 75.9 µM; in [3] it was 29.5 µM; in [5], 45.7 µM; in assay [6], 58.9 µM; in assay [7] it was 28.2 µM. The GI50 in assay [8] was 34.7 µM; in [10], 41.7 µM. In addition, the IC50 in [4] is 1.5 µM.
Turning to `COc1ccc(-c2cc(O)c3cc(OC)ccc3n2)cc1`, the GI50 is greater than 100 µM in assay [1]; 36.3 µM in [2]; greater than 100 µM in assay [3]; greater than 100 µM in [5]; greater than 100 µM in assay [6]; greater than 100 µM in assay [8]. In addition, the 50% growth inhibitory concentration (GI50) in [9] and in assay [10] was greater than 100 µM each time. In assay [4], this molecule came in with an IC50 greater than 40 µM.
Consider `Oc1cc(-c2ccco2)nc2cc3c(cc12)OCO3`, for which the GI50 in [1] is 25.1 µM; in assay [2], 41.7 µM; in [3], 24.5 µM; in [5] it was 37.2 µM; in assay [6], 39.8 µM; in assay [7], 28.2 µM. In addition, the 50% growth inhibitory concentration (GI50) in assay [8] is 21.4 µM; in [9], 13.5 µM; in assay [10] it was 42.7 µM. The molecule also had an IC50 in assay [4] of 23 µM.
For `COc1cc2nc(-c3ccccc3)cc(O)c2cc1OC`, the midpoint of inhibition in [4], the IC50, lay at 18 µM.
With `COc1ccc2c(c1)CCc1c-2nc2cc3c(cc2c1O)OCO3`, the GI50 in [1], in [2], in assay [3], in [6], in assay [7] and in [8] was greater than 100 µM each time. For the same molecule, the GI50 in assay [9] and in assay [10] was greater than 100 µM in each case.
For the molecule `COc1cccc(-c2cc(O)c3cc(OC)c(OC)cc3n2)c1`, the GI50 is 33.1 µM in [1]; 50.1 µM in assay [2]; 21.4 µM in assay [3]; 55 µM in [5]; 58.9 µM in [6]; 40.7 µM in assay [7]. Moreover, the GI50 in assay [8] is 24 µM; in assay [10], 33.9 µM. Moreover, the half-maximal inhibitory concentration (IC50) in [4] worked out at 4.3 µM.
As for `Oc1cc(-c2ccccn2)nc2cc(F)ccc12`, the GI50 in assay [2] was 29.5 µM; in [3], greater than 100 µM; in assay [5] it was 52.5 µM; in assay [6] it was 43.7 µM; in [7], greater than 100 µM; in [8], greater than 100 µM. The GI50 in assay [9] is 44.7 µM. In addition, the half-maximal inhibitory concentration (IC50) in [4] is greater than 40 µM.
With `Oc1cc(/C=C/c2ccccc2)nc2cc3c(cc12)OCO3`, the GI50 in assay [1] was 4.27 µM; in assay [2] it was 7.08 µM; in assay [3] it was 2.88 µM; in [6], 2.82 µM; in assay [7], 3.02 µM; in [9], 2.19 µM. The molecule further had a GI50 in assay [10] of 2.24 µM. Besides, it took 2.3 µM to reach half-maximal inhibition in assay [4] (IC50).
As to `CN(C)c1ccc(-c2cc(O)c3ccccc3n2)cc1`, the GI50 in assay [1], in assay [2], in assay [3], in assay [5], in assay [6] and in [7] was greater than 100 µM throughout. The GI50 in [8] and in [10] was greater than 100 µM in each case. In assay [4], the concentration for half-maximal inhibition (IC50) is greater than 40 µM.
On to `COc1cc(-c2cc(O)c3ccccc3n2)cc(OC)c1OC`, for which the GI50 in assay [1], in [2], in [3], in assay [5], in [6] and in [7] was greater than 100 µM each time. Besides, the GI50 in assay [8] and in assay [10] was greater than 100 µM throughout. The IC50 in [4] is greater than 40 µM.
For `Oc1cc(-c2ccccc2)nc2cc3c(cc12)OCO3`, the GI50 in assay [1] is 0.112 µM; in assay [2], 0.0302 µM; in [3] it was 0.316 µM; in [6], 0.0708 µM; in assay [7] it was 0.191 µM; in assay [8] it was 0.182 µM. Further, the results for the GI50 in [9] and in assay [10] were 0.0355 µM and 0.162 µM, respectively. The molecule further displayed an IC50 in assay [4] of 0.63 µM.
Turning to `Oc1c2c(nc3cc4c(cc13)OCO4)-c1ccccc1CCC2`, the 50% growth inhibitory concentration (GI50) in assay [1] was greater than 100 µM; in assay [2], greater than 100 µM; in assay [3], greater than 100 µM; in assay [6] it was 28.2 µM; in [7], 19.5 µM; in assay [9], greater than 100 µM. In addition, the concentration for 50% growth inhibition (GI50) in assay [10] was greater than 100 µM. Moreover, the half-maximal inhibitory concentration (IC50) in [4] is greater than 40 µM.
